Values belong to the compound of their own block, whether it stands above or below them.
How the values were obtained:
tyrosinase [1] = target: T1, tyrosinase (Agaricus bisporus, UniProt C7FF04); test: Enzyme kinetic analysis of tyrosinase with L-DOPA (Lineweaver-Burk, Dixon plots); type: biochemical; details: substrate L-DOPA
Experimental: (§1) Enzyme kinetics were analyzed using Lineweaver–Burk and Dixon reciprocal plots of the reaction rate and substrate concentration to evaluate the effect of the sample on the affinity of the substrate and enzyme. The tyrosinase concentration was kept constant at 200 U/mL, whereas the substrate (L-tyrosine/L-DOPA) concentration varied between 0.5 and 2.0 mM. The reaction was similar to the anti-tyrosinase assay described above; 100 µL of sample solution was added, followed by 100 µL of tyrosinase (200 units/mL) after incubation at 25 °C. The substrate was then added to the wells and mixed thoroughly, and kinetic measurements of the solution were performed at a wavelength of 475 nm.

B16F10 melanoma cells [2] = test: Cell viability, CCK-8 assay; type: cell-based, Murine; details: 0.1–5 μM, 72 h
Experimental: Murine B16F10 melanoma cells (Korean Cell Line Bank, Seoul, Republic of Korea) were cultured in DMEM containing 10% FBS and 1% penicillin-streptomycin at 37 °C in the humidified atmosphere of a 5% CO2 incubator. The cells were cultured until 100% confluent for all experiments.
Cell viability was assessed using the CCK-8 kit. Cells were incubated in 96-well plates at a density of approximately 3 × 10^3 cells/well. After 24 h incubation, a kuraridin concentration (0.1–10 µM) of samples or medium was added to B16F10 cells at 72 h of incubation. Absorbance was monitored at 450 nm using a microplate reader (Synergy H(1), Biotek, VT, USA).

tyrosinase [3] = target: T1, tyrosinase; test: Enzyme kinetic analysis of tyrosinase with L-tyrosine (Lineweaver-Burk, Dixon plots); type: biochemical; details: substrate L-tyrosine
Experimental: as §1

B16F10 melanoma cells [4] = test: Cellular melanin content (extracellular and intracellular) in α-MSH-induced cells; type: cell-based, Murine
Experimental: B16F10 melanoma cells (7.4 × 10⁴ cells/well) were seeded in a 6-well plate. […] The extracellular melanin content was measured by direct estimation of the absorbance of the cell-free culture medium at 405 nm. For the measurement of intracellular melanin content, cell pellets were dissolved in 1 N NaOH at 95 °C for 1 h. The absorbance of the resulting solution was measured at 405 nm using a microplate reader [Synergy H(1)].

B16F10 cells = test: Cellular tyrosinase activity (L-DOPA oxidation) in α-MSH-induced cells; type: cell-based, Murine; details: for Intracellular tyrosinase activity: α-MSH-induced B16F10 cells
Experimental: Tyrosinase activity was estimated by measuring the rate of L-DOPA oxidation. […] The cells were washed with cold PBS, and cell lysis buffer was added for lysis at 4 °C for 1 h on ice and centrifuged at 13,000 rpm for 20 min at […] to obtain supernatants. Protein concentration was quantified at 50 µg using a BCA protein assay kit. […] Absorbance was measured at 490 nm using a microplate reader.

tyrosinase [5] = test system: tyrosinase; set-up: method as in Deri et al. (2016) [15]; details: ref Deri et al. (2016) [15], cited from earlier work
[6] = α-MSH-induced B16F10 cells, 0.1–5 μM, dose-dependent
[7] = B16F10 cells, α-MSH stimulation 0.1 μM, 72 h, control = 100%

T1 sequence (G1K3P4 entry or part of it): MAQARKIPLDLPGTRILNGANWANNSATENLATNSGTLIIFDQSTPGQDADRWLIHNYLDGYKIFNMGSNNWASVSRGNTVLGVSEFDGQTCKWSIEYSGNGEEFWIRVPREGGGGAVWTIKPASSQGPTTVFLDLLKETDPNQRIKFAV
T1 sequence (C7FF04 2-392): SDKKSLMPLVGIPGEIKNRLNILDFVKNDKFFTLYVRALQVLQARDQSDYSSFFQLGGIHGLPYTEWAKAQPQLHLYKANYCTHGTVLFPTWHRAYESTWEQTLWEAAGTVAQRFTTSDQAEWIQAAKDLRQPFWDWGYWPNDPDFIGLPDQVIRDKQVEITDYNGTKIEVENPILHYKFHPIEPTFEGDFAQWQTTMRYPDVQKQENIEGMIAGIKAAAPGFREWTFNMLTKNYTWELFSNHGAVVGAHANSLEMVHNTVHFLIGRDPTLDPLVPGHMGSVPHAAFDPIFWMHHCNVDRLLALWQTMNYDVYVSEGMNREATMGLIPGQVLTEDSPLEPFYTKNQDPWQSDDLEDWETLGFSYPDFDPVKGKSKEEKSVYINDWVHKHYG

Inhibition Type L-DOPA (tyrosinase [1]): Competitive | Inhibition Type L-DOPA (tyrosinase [1]; listed as kuraridin): competitive inhibition | Inhibition Type L-Tyrosine (tyrosinase [3]): Non-competitive
Compound: C=C(C)[C@H](CC=C(C)C)Cc1c(O)cc(OC)c(C(=O)/C=C/c2ccc(O)cc2O)c1O [Kuraridin, kuraridin]
Cytotoxicity (cell viability) (B16F10 melanoma cells [2]): without cytotoxicity | Extracellular melanin production (B16F10 melanoma cells [4]; [6]): significantly attenuated | Intracellular melanin production (B16F10 melanoma cells [4]; [6]): significantly attenuated | Intracellular melanin content lower than the untreated control (B16F10 melanoma cells [4]; α-MSH-treated B16F10 cells, 1 µM): 15% | Intracellular tyrosinase activity (B16F10 cells; all tested concentrations (0.1–5 μM), vs α-MSH only, p < 0.001): significantly suppressed tyrosinase activity | Intracellular tyrosinase activity (B16F10 cells; lowest concentration 0.1 μM): reached control levels

Compound: O=c1cc(CO)occ1O [Kojic acid]
Inhibition Type L-DOPA (tyrosinase [5]; substrate L-DOPA): Mixed ^2 | Inhibition Type L-Tyrosine (tyrosinase [5]; substrate L-tyrosine): Mixed ^2

Inhibition Type L-Tyrosine (tyrosinase [3]): Non-competitive
Compound: C=C(C)[C@H](CC=C(C)C)Cc1c(O)cc(O)c2c1O[C@H](c1ccccc1O)CC2=O [Kushenol A, kushenol A]

Inhibition Type L-Tyrosine (tyrosinase [3]): Non-competitive
Compound: C=C(C)[C@H](CCC(C)(C)O)Cc1c(O)cc(OC)c2c1O[C@H](c1ccc(O)cc1O)CC2=O [Kurarinol, kurarinol]

Compound: alpha-melanocyte-stimulating hormone [α-MSH, reference compound]
Extracellular melanin content (B16F10 melanoma cells [4]; [7]): approximately 132% | Intracellular melanin content (B16F10 melanoma cells [4]; [7]): ~127% | Increase of intracellular tyrosinase activity compared with control group (B16F10 cells; B16F10 cells, α-MSH 100 nM, 72 h): 1.8 fold
